# Tested on: Erysiphe graminis
# Assay: Test for preventive effect on wheat powdery mildew
# Format: in vivo
# Details: wheat (Norin-61-go) seedlings, 500 ppm active ingredient, preventive treatment; diseased area of first leaves 10 days after inoculation with Erysiphe graminis
# Description: Test for Preventive Effect on Wheat Powdery Mildew 9 Wheat seeds (variety: Norin-61-go) were sown in each 9 cm×9 cm polyvinyl chloride pot, grown in a greenhouse for 8 days, then treated with 10 ml per pot of aqueous solutions of wettable powders prepared in accordance with Formulation Example 2, at a concentration of 500 ppm in terms of the active ingredients and dried in the air. Then, the seedlings were inoculated with Erysiphe graminis spores by sprinkle over the plant and placed in a greenhouse of from 20 to 25° C. 10 days after the inoculation, the total diseases area of the first leaves in each pot was observed and evaluated on the basis of the standards shown in Table 67. [table]
row,SMILES,Biological effectiveness
1,CCCOc1cc(C)nc(-n2cnc3ccccc32)n1 [Compound I-804],A (No diseased area)
2,COc1nc(OC)nc(-n2c(Cl)nc3cc(C)ccc32)n1 [Compound I-279],A (No diseased area)
3,CCCOc1cc(C)nc(-n2c(C)nc3ccccc32)n1 [Compound I-806],B (Diseased area of less than 25%)
4,CCOc1ccnc(-n2cnc3cc(C)ccc32)n1 [Compound I-693],A (No diseased area)
5,COc1cc(OC)nc(-n2cnc3ccc(F)cc32)n1 [Compound I-112],B (Diseased area of less than 25%)
6,CCOc1nc(OCC)nc(-n2c(C(F)(F)F)nc3cc(Br)ccc32)n1 [Compound I-546],A (No diseased area)
7,COc1cc(OC)nc(-n2cnc3cc(C)c(C)cc32)n1 [Compound I-122],B (Diseased area of less than 25%)
8,COc1nc(OC)nc(-n2cnc3ccccc32)n1 [Compound I-40],B (Diseased area of less than 25%)
9,CCCc1ccc2c(c1)nc(C)n2-c1nc(OC)nc(OC)n1 [Compound I-220],B (Diseased area of less than 25%)
10,COc1nc(OC)nc(-n2cnc3cc(Br)ccc32)n1 [Compound I-131],A (No diseased area)
11,COc1ccc2c(c1)ncn2-c1nc(OC)nc(OC)n1 [Compound I-141],A (No diseased area)
12,COc1cc(OC)nc(-n2c(C)nc3ccc(Cl)cc32)n1 [Compound I-201],A (No diseased area)
13,COc1cc(OC)nc(-n2c(Cl)nc3cc(F)ccc32)n1 [Compound I-255],A (No diseased area)
14,COc1cc(OC)nc(-n2c(C(F)(F)C(F)(F)F)nc3ccccc32)n1 [Compound I-27],B (Diseased area of less than 25%)
15,CCc1nc2cc(F)ccc2n1-c1nc(OC)cc(OC)n1 [Compound I-332],B (Diseased area of less than 25%)
16,COc1cc(OC)nc(-n2c(Cl)nc3ccccc32)n1 [Compound I-2],A (No diseased area)
17,CCc1nc2cc(Cl)ccc2n1-c1nc(OC)cc(OC)n1 [Compound I-333],A (No diseased area)
18,COc1nc(C2CC2)nc(-n2c(C)nc3cc(C)ccc32)n1 [Compound I-1019],A (No diseased area)
19,Cc1cc(OC(C)C)nc(-n2cnc3ccccc32)n1 [Compound I-839],A (No diseased area)
20,CCOc1cc(OCC)nc(-n2c(C(F)(F)F)nc3ccccc32)n1 [Compound I-465],B (Diseased area of less than 25%)
21,COc1nc(OC)nc(-n2c(C)nc3cc(C#N)ccc32)n1 [Compound I-239],A (No diseased area)
22,CCCc1cc(OC)nc(-n2c(C)nc3cc(Cl)ccc32)n1 [Compound I-964],B (Diseased area of less than 25%)
23,CCCc1ccc2c(c1)ncn2-c1nc(OC)nc(OC)n1 [Compound I-135],A (No diseased area)
24,COc1nc(OC)nc(-n2c(Cc3ccccc3)nc3cc(Cl)ccc32)n1 [Compound I-379],A (No diseased area)

row,SMILES,Biological effectiveness
1,CCOc1cc(OCC)nc(-n2c(C)nc3cc(C)ccc32)n1 [Compound I-501],A (No diseased area)
2,COc1nc(OC)nc(-n2c(C)nc3cc(C)c(C)cc32)n1 [Compound I-251],A (No diseased area)
3,Cc1cc(C#N)nc(-n2c(C)nc3ccccc32)n1 [Compound I-1147],B (Diseased area of less than 25%)
4,COc1cc(OC)nc(-n2c(Cl)nc3cc(OC(F)(F)F)ccc32)n1 [Compound I-263],A (No diseased area)
5,COc1cc(OC)nc(-n2cnc3cc(Cl)ccc32)n1 [Compound I-83],B (Diseased area of less than 25%)
6,COc1cc(OC)nc(-n2c(C)nc3cc(C(=O)c4ccccc4)ccc32)n1 [Compound I-195],B (Diseased area of less than 25%)
7,CCc1cc(C)nc(-n2cnc3ccccc32)n1 [Compound I-1085],A (No diseased area)
8,CCOc1nc(OCC)nc(-n2cnc3cc(Br)ccc32)n1 [Compound I-490],A (No diseased area)
9,CCc1cc(C)nc(-n2c(C)nc3cc(Cl)ccc32)n1 [Compound I-1088],A (No diseased area)
10,COc1cc(OC)nc(-n2c(Cl)nc3ccc(Cl)cc32)n1 [Compound I-271],A (No diseased area)
11,CSc1nc(SC)nc(-n2c(C)nc3cc(Cl)ccc32)n1 [Compound I-1043],A (No diseased area)
12,CC(C)Oc1nc(OC(C)C)nc(-n2c(C(F)(F)F)nc3cc(Cl)ccc32)n1 [Compound I-595],B (Diseased area of less than 25%)
13,COc1nc(OC)nc(-n2cnc3cc(C)ccc32)n1 [Compound I-133],A (No diseased area)
14,COc1cc(OC)nc(-n2c(-c3ccc(Cl)cc3)nc3ccccc32)n1 [Compound I-35],B (Diseased area of less than 25%)
15,COc1cc(OC)nc(-n2cnc3cc(OC(F)(F)F)ccc32)n1 [Compound I-91],B (Diseased area of less than 25%)
16,CCOc1cc(OCC)nc(-n2cnc3cc(C(F)(F)F)ccc32)n1 [Compound I-483],A (No diseased area)
17,CCOc1cc(OCC)nc(-n2c(C)nc3ccccc32)n1 [Compound I-461],A (No diseased area)
18,CCOc1ccnc(-n2cnc3ccccc32)n1 [Compound I-690],A (No diseased area)
19,COc1nc(OC)nc(-n2c(C(F)(F)F)nc3cc(Br)ccc32)n1 [Compound I-311],A (No diseased area)
20,CSc1nc(SC)nc(-n2c(C(F)(F)F)nc3cc(Cl)ccc32)n1 [Compound I-1046],A (No diseased area)
21,CCOc1ccnc(-n2c(C)nc3cc(Cl)ccc32)n1 [Compound I-694],B (Diseased area of less than 25%)
22,COc1ccc2nc(C)n(-c3nc(OC)cc(OC)n3)c2c1 [Compound I-204],A (No diseased area)
23,C=CCOc1cc(C)nc(-n2c(C)nc3ccccc32)n1 [Compound I-885],B (Diseased area of less than 25%)
24,COc1cc(OC)nc(-n2cnc3cc(Br)ccc32)n1 [Compound I-84],A (No diseased area)

row,SMILES,Biological effectiveness
1,CCCc1cc(OC)nc(-n2c(C)nc3ccc(Cl)cc32)n1 [Compound I-967],A (No diseased area)
2,CCOc1cc(OCC)nc(-n2c(CC)nc3ccccc32)n1 [Compound I-462],B (Diseased area of less than 25%)
3,COc1nc(C)nc(-n2c(C)nc3cc(C)ccc32)n1 [Compound I-752],A (No diseased area)
4,COc1cc(OC)nc(-n2c(C)nc3cc(F)ccc32)n1 [Compound I-183],B (Diseased area of less than 25%)
5,COc1ccc2c(c1)nc(C(F)(F)F)n2-c1nc(OC)nc(OC)n1 [Compound I-318],A (No diseased area)
6,CCOc1cc(C)nc(-n2cnc3ccccc32)n1 [Compound I-768],A (No diseased area)
7,CC#Cc1cc(C)nc(-n2cnc3ccccc32)n1 [Compound I-1123],B (Diseased area of less than 25%)
8,CCc1nc2cc(C(F)(F)F)ccc2n1-c1nc(OC)cc(OC)n1 [Compound I-335],A (No diseased area)
9,COc1nc(OC)nc(-n2c(C(F)(F)F)nc3cc(C(C)(C)C)ccc32)n1 [Compound I-316],B (Diseased area of less than 25%)
10,COc1ccc2c(c1)nc(N)n2-c1nc(OC)cc(OC)n1 [Compound I-364],A (No diseased area)
11,COc1nc(OC)nc(-n2c(C(F)(F)F)nc3cc(F)ccc32)n1 [Compound I-309],A (No diseased area)
12,COc1nc(OC)nc(-n2cnc3cc(Cl)ccc32)n1 [Compound I-130],A (No diseased area)
13,COc1cc(OC)nc(-n2c(C)nc3cc(Cl)c(Cl)cc32)n1 [Compound I-209],B (Diseased area of less than 25%)
14,COc1nc(OC)nc(-n2c(N(C)C)nc3cc(Cl)ccc32)n1 [Compound I-376],B (Diseased area of less than 25%)
15,CCc1nc2cc(OC)ccc2n1-c1nc(OC)cc(OC)n1 [Compound I-336],A (No diseased area)
16,COc1cc(OC)nc(-n2c(C)nc3ccc(C(F)(F)F)cc32)n1 [Compound I-203],B (Diseased area of less than 25%)
17,COc1ccc2c(c1)nc(Cl)n2-c1nc(OC)cc(OC)n1 [Compound I-260],A (No diseased area)
18,CCCCOc1cc(C)nc(-n2cnc3ccccc32)n1 [Compound I-872],B (Diseased area of less than 25%)
19,COc1cc(OC)nc(-n2cnc3ccccc32)n1 [Compound I-1],A (No diseased area)
20,COc1cc(OC)nc(-n2c(C#N)nc3cc(C)ccc32)n1 [Compound I-381],A (No diseased area)
21,COc1nc(OC)nc(-n2c(C(F)(F)F)nc3cc(I)ccc32)n1 [Compound I-327],A (No diseased area)
22,COc1nc(OC)nc(-n2cnc3cc(Cl)c(Cl)cc32)n1 [Compound I-175],A (No diseased area)
23,CCCOc1cc(C)nc(-n2cnc3cc(C)ccc32)n1 [Compound I-809],B (Diseased area of less than 25%)
24,CCOc1nc(OCC)nc(-n2c(C)nc3cc(Br)ccc32)n1 [Compound I-515],A (No diseased area)
